Test results reported in patent US12428433B2, “Fluorine-containing heterocyclic derivatives with macrocyclic structure and use thereof” (ScinnoHub Pharmaceutical Co., Ltd, priority 2019, dated 2025).
pIC50: −log10 of the molar value.

Assays:
[1] = Stability test in liver microsomes, human; type: in vitro ADME; conditions: for half-life at 1 μM: 0.5 mg/mL
Experimental: (§1) A stability of the compound of the present application in liver microsomes of human, rat and mouse was measured.
(§2) 3.1 A buffer and a liver microsome were prepared into an incubation solution according to the following table:
(§3) 3.2 The following two experiments were carried out respectively: a) incubation system added with coenzyme factor NADPH: 25 μL of NADPH (10 mM) was added into an incubation solution (mainly comprising a liver microsome and a phosphate buffer), so that final concentrations of the liver microsome and the NADPH were 0.5 mg/mL and […] respectively; and b) incubation system without coenzyme factor NADPH: 25 μL of phosphate buffer (100 mM) was added into the incubation solution, so that the final concentration of the liver microsome was 0.5 mg/mL. The incubation systems above were preheated at 37° C. for 10 minutes respectively.
(§4) 3.3 2.5 μL of positive control compound or a tested compound solution (100 μM) was added into the incubation systems described in “step 3.2” above respectively for reaction, and the positive control compound was verapamil (purchased from Sigma), so that a final concentration of the tested compound of the present application or the positive control compound was 1 μM. The incubation solution added with the compound was incubated in water at 37° C. in batches.
(§5) 3.4 30 μL of aliquot was taken from a reaction solution after 0.5 minute, 5 minutes, 15 minutes, 30 minutes and 45 minutes respectively, and the reaction was terminated by adding 5 times volume of cold acetonitrile containing 200 nM caffeine and 100 nM tolbutamide. The aliquot was centrifuged at a gravity acceleration of 3,220 g for 40 minutes, and 100 μL of supernatant was mixed with 100 μL of ultrapure water, and then used for LC-MS/MS analysis.
(§6) A peak area was determined by an extracted ion chromatogram. A slope value k was determined by linear regression of a remaining percentage of a parent drug relative to […] an incubation time curve.
(§7) In-vitro half-life periods (t1/2) were respectively calculated and determined according to the slope value, and an average value of the in-vitro half-life periods was converted into an in-vitro intrinsic clearance rate (CLint, represented by μL/min/mg protein).

[2] = Stability test in liver microsomes, rat; type: in vitro ADME; conditions: for half-life at 1 μM: 0.5 mg/mL
Experimental: as §1, §2, §3, §4, §5, §6, §7

Ba/F3-LMNA-NTRK1-G667S = assay: In-vitro cell viability (CellTiter-Glo), BaF3 cell lines; type: cell-based; conditions: Mus musculus, 72 hours
Experimental: (§8) Hefei Precedo Biomedical Technology Co., Ltd. was commissioned to complete the testing example, and the cell lines used were constructed by this company.
(§9) In-vitro anti-proliferative effects of the compound of the present application on 6 BaF3 cell lines were measured.
(§10) 6 Ba/F3 cell lines were cultured with RPMI 1640 (Biological Industries, Israel)+10% fetal calf serum (Biological Industries, Israel)+1% double antibiotics (Penicillin Streptomycin solution, Coring, USA), and cells were cultured for two generations after resuscitation, to be tested.
(§11) The to-be-tested compound was prepared into 10 mM mother solution with DMSO, and then diluted to 1 mM with DMSO. The solution was diluted by 3 times to prepare into 1.0000 mM, 0.3333 mM, 0.1111 mM, 0.03704 mM, 0.01235 mM, 0.00412 mM, 0.00137 mM, 0.00046 mM, 0.00015 mM, and […], and stored in a 96-well drug plate (Beaver, Suzhou), with 10 concentration gradients in total. Meanwhile, an equal volume of DMSO solvent was used as a negative control.
(§12) The prepared 1,000× compounds of 10 concentration gradients were respectively diluted by 50 times into 20× compounds with complete medium, and stored in a 96-well drug plate (Beaver, Suzhou), with 10 concentration gradients in total. Meanwhile, an equal volume of DMSO solvent was used as a negative control.
(§13) Cell suspension in logarithmic growth phase was inoculated on a 96-well white cell culture plate (Corning 3917, NY, USA), and a volume of each well was 95 μl (about 2000 cells/well).
(§14) 5 μl of 20× to-be-tested compounds were respectively added into the culture plate containing 95 μl of cell suspension above, and mixed evenly, with 2 wells for each concentration gradient. Final concentrations of the to-be-tested compounds were 1.0000 μM, 0.3333 μM, 0.1111 μM, 0.03704 μM, 0.01235 μM, 0.00412 μM, 0.00137 μM, 0.00046 μM, 0.00015 μM, and […] respectively.
(§15) Incubation was carried out in an incubator at 37° C. under 5% CO2 for 72 hours.
(§16) The following steps were carried out according to the instruction of Promega CellTiter-Glo Luminescence Cell Viability Assay Kit (Promega-G7573).
(§17) A corresponding […] value RLU of each well was obtained through reading by SpectraMax Paradigm. Cell viability data was processed by the following formula:
(§18) Cell viability(%)=(RLUDrug−RLUMin)/(RLUMax−RLUMin)*100%. Cell viabilities of compounds of different concentrations were calculated in EXCEL, then cell viability curves were made by GraphPad Prism software, and related parameters were calculated. The parameters comprised a maximum cell viability, a minimum cell viability, and an IC50 value.

Ba/F3-LMNA-NTRK1-V573I = assay: as above; type: cell-based; conditions: Mus musculus, 72 hours
Experimental: as §8, §9, §10, §11, §12, §13, §14, §15, §16, §17, §18

Ba/F3-LMNA-NTRK1 = assay: as above; type: cell-based; conditions: Mus musculus, 72 hours
Experimental: as §8, §9, §10, §11, §12, §13, §14, §15, §16, §17, §18

Ba/F3-TEL-NTRK2 = assay: as above; type: cell-based; conditions: Mus musculus, 72 hours
Experimental: as §8, §9, §10, §11, §12, §13, §14, §15, §16, §17, §18

Ba/F3-TEL-NTRK3 = assay: as above; type: cell-based; conditions: Mus musculus, 72 hours
Experimental: as §8, §9, §10, §11, §12, §13, §14, §15, §16, §17, §18

TRKa = TRKa (Homo sapiens (Human), UniProt P04629); assay: Kinase inhibitory activity (Caliper mobility shift), TRKa; type: biochemical
Experimental: […] (Shanghai) Co., Ltd. was commissioned to complete the testing example. […] 3.1 A tested compound was accurately weighed and dissolved in 100% DMSO to prepare into a 10 mM solution. […] 3.2.3 A kinase solution of 2.5 times final concentration was prepared with 1×kinase buffer. […] 3.2.5 The reaction plate was shaken and mixed evenly, and then incubated at room temperature for 10 minutes. 3.2.6 Mixed solutions of ATP and kinase substrate 22 of 5 times and 3 times final concentrations were prepared with 1×kinase buffer. 3.2.7 15 μL of mixed solution of ATP and substrate of 5 times or 3 times final concentration was added. 3.2.8 The 384-well plate was centrifuged at 1,000 rpm for 30 seconds, shaken and mixed evenly, and then incubated at room temperature for corresponding time. 3.2.9 The kinase reaction was terminated. 3.2.10 A conversion rate was read by the microplate reader Caliper EZ Reader. Calculation Formula Inhibition rate %=(conversion rate % maximum-conversion rate % sample)/(conversion rate % maximum-conversion rate % minimum)×100 wherein the conversion rate % sample was: a reading number of a conversion rate of a sample; the conversion rate % minimum was: an average value of the negative control well, which represented a reading number of a conversion rate without an enzyme activity well; and the conversion rate % maximum was: an average value of a ratio of the positive control well, which represented a reading number of a conversion rate without a compound inhibition well.

TRKa, sequence (P04629 33-796): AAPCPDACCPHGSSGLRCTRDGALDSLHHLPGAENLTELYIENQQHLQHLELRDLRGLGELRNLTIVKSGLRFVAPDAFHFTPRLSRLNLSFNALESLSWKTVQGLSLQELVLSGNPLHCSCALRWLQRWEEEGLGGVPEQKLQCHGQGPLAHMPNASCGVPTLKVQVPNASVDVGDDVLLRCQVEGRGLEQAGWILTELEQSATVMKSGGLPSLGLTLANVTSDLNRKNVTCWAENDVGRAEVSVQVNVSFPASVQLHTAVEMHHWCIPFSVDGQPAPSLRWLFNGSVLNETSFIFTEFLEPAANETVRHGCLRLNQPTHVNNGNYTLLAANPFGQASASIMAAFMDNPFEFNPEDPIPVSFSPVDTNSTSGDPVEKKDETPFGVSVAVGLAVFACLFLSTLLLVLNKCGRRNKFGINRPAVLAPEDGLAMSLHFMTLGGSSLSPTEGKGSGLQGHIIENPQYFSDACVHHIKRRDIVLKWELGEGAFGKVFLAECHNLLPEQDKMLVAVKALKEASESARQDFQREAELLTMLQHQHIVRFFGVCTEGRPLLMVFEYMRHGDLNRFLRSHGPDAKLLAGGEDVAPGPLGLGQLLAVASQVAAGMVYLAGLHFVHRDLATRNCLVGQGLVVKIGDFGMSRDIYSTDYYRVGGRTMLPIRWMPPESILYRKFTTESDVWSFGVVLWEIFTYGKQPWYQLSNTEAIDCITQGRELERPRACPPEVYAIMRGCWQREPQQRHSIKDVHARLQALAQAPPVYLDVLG

| Compound | microsomal CLint at 1 μM [1] [µL/min/mg] | half-life at 1 μM [1] [min] | % Remaining(45 min) [1] [%] | microsomal CLint at 1 μM [2] [µL/min/mg] | half-life at 1 μM [2] [min] | % Remaining(45 min) [2] [%] | pIC50 (Ba/F3-LMNA-NTRK1-G667S) | pIC50 (Ba/F3-LMNA-NTRK1-V573I) | pIC50 (Ba/F3-LMNA-NTRK1) | pIC50 (Ba/F3-TEL-NTRK2) | pIC50 (Ba/F3-TEL-NTRK3) | pIC50 (TRKa) |
| --- | --- | --- | --- | --- | --- | --- | --- | --- | --- | --- | --- | --- |
| O=C1N[C@H]2C[C@H](C2)Oc2ncc(F)cc2[C@H]2CCCN2c2nc3c1cnn3cc2F [Example 2, ((1^3E,1^4E,2^2R,5^1S,5^3S)-1^6,3^5-difluoro-4-oxa-6-aza-1(5,3)-pyrazolo[1,5-a]pyrimidine-3(3,2)-pyridine-2(1,2)-pyrrolidine-5(1,3)-cyclobutancycloheptan-7-one] | 86 | 16.1 | 14.38 | 214 | 6.5 | 2.37 | 8.47 | 9.52 | 9.15 | 8.80 | 8.77 |  |
| O=C1N[C@H]2C[C@H](C2)Oc2ncc(F)cc2[C@H]2CCCN2c2ccn3ncc1c3n2 (stereo in doubt) [Positive control 1, reference compound] | 92.3 | 15 | 12.43 | 123 | 11.3 | 9.03 | 8.57 | 9.70 | 9.30 | 9.05 | 9.05 | 9.41 |
| C[C@H]1Nc2nc3c(cnn3cc2F)C(=O)N[C@H]2C[C@H](C2)Oc2ncc(F)cc21 [Example 3, (3^1S,3^3S,6^3E,6^4E,8R)-1^5,6^6-difluoro-8-methyl-2-oxo-4,7-diaza-6(3,5)-pyrazolo[1,5-a]pyrimidine-1(2,3)-pyridine-3(1,3)-cyclobutylcyclooctane-5-one] | 11.1 | 128 | 69.89 | 22.8 | 60.8 | 51.22 | 8.08 | 8.96 | 8.80 | 8.47 | 8.30 | 9.44 |
| C[C@H]1Nc2ccn3ncc(c3n2)C(=O)N[C@H]2C[C@H](C2)Oc2ncc(F)cc21 [Positive control 2, reference compound] | 16.4 | 84.8 | 67.39 | 30 | 46.3 | 40.95 | 7.70 | 8.64 | 8.39 | 8.14 | 8.01 | 9.37 |
